In patent publication US20190218304A1, “POTENTIATING THE EFFECT OF ATP RELEASE” (INNATE PHARMA, priority 2017, published 2019):

Tested on: MCA205 mouse tumor cells (sarcoma)
Experiment: In vivo combination treatment, MCA205 tumors in human CD39 KI mice
[1] = first experimental series: oxaliplatin at day 5, murine I-394 twice a week from day 4
[2] = second experimental series, repeated oxaliplatin

Experimental: 1×10^6 MCA205 mouse tumor cells (sarcoma) were subcutaneously engrafted in the right flank of mice genetically modified to express human CD39 (CD39KI mice). […] Tumors were measured twice a week with a caliper (L: length and w: width) and tumor volume was calculated with the formula (L×w2)/2. Mice were sacrificed when tumor volume was above 1800 mm^3 or when tumors were highly necrosed. The human CD39 KI mice were engrafted with MCA205 tumor cells at day 0.
In a first experimental series, mice were treated at day 5 post tumor cell engraftment with either control (1 group) PBS, or oxaliplatin chemotherapy (2 groups). In parallel, one group of mice treated with oxaliplatin was injected twice a week with anti-CD39 antibody, with the anti-CD39 antibody treatment starting just one day before oxaliplatin treatment (at day 4).

## O=C1[O][Pt]2([NH][C@@H]3CCCC[C@H]3[NH]2)[O]C1=O [oxaliplatin]
[1]
  Complete Response (CR), number of mice: no CR
  Survival median: 25 days
Second experimental series, 40 days post tumor engraftment
  tumor free mice: 2/12
[2]
  CR (complete responses), number of mice: 2
  partial responses (PR), number of mice: 3
Second experimental series: oxaliplatin injected twice, one week apart, one day after I-394
  effect on tumor growth / tumor volume and mice survival: some regression of tumor volume, and increase in mice survival
